The text below walks through data of PMC9106635, “Stimulation of the atypical chemokine receptor 3 (ACKR3) by a small-molecule agonist attenuates fibrosis in a preclinical liver but not lung injury model” (Cellular and Molecular Life Sciences: CMLS, 2022).

Broadly, the IC50 is the concentration at which inhibition is half-maximal.

For one data set, the target named is hACKR3 (Homo sapiens, UniProt P25106). Briefly: β-arrestin2 recruitment assay (PathHunter CHO-K1 CXCR7 β-arrestin cell line). It counts as cell-based. The arrangement: host or cells: CHO-K1 (PathHunter CXCR7 β-arrestin cell line). As for the experimental part:
β-arrestin2 recruitment downstream of ACKR3 activation was analyzed using the PathHunter CHO-K1 CXCR7 β-arrestin Cell Line (93-0248C2; DiscoverX). Cells were cultured in AssayComplete™ Cell Culture Kit-107 (92-3107G; DiscoverX) at 37 °C and 5% CO2. Briefly, 20,000 cells/well were seeded in AssayComplete™ Cell Plating 2 Reagent (93-0563R2A; DiscoverX) in a white 96-well plate (100 µL/well) with clear bottom (Costar, 3610) and incubated overnight at 37 °C and 5% CO2. The next day, 10 µL/well of test compound (11 × concentrated) was added and cells were incubated for 90 min at 37 °C and 5% CO2. Compounds were tested in duplicate in a 1:4 dilution series ranging from 1000 nM to 0.06 nM final concentration. After incubation, 55 µL/well of detection reagent (PathHunter Detection kit; 93-0001; DiscoverX) was added and cells were incubated for 1 h at room temperature (RT) protected from light. Finally, luminescence was measured using a FLIPR Tetra® device (Molecular Devices, Sunnyvale, CA, USA). Four parameter non-linear curve fitting (GraphPad Prism 9.0.2) was used to determine the EC50 value for β-arrestin2 recruitment.
(Arrestin recruitment assays detect the binding of arrestin to an activated receptor.)

The test system of data set [1] is fibrosis-associated genes (lung mRNA). Briefly: qRT-PCR of fibrosis-associated genes in lung tissue. Format: in vivo, mouse. As for the experimental part:
Total RNA was prepared from snap-frozen liver tissue (the lateral and medial right lobes and the caudate lobe; Supplementary Figure S1a) or lung tissue (cranial right lobe; Supplementary Figure S1b) after homogenization on ice in TRIZol. For quantitative qRT-PCR, cDNA was made from 0.5 μg of RNA using the GoScript reverse transcription system (Promega) according to the manufacturer’s protocol. QRT-PCR was performed (for 40 cycles) with the Quantstudio3 Applied Biosystems (ABI) system using Sybr green (ABI) followed by melting curve analysis. Expression was calculated using the delta threshold cycle (ΔCT) method with Gapdh as reference gene (previously validated as stable house-keeping gene in the CCl4 model and in the bleomycin model, current study, not shown). Forward (F) and reverse (R) primer sequences were (5’-3’): Gapdh: F: ccgcatcttcttgtgcagt, R: […]; Col1a1: F: […], R: […]; Ackr3: F: […], R: […]; Cxcr4: F: […], R: […]; Golm1: F: […], R: […]; Lgals3: F: […], R: […]; Unc93b1: F: […], R: […]; Slc15a3: F: […], R: […]; Sec24d: F: […], R: […]; Cxcl10: F: […], R: […]; and Clec4n: F: […], R: […]. Data are expressed as mean ± sem. […] The scaled counts were base log2-transformed and data were expressed as fold-change versus the reference condition (CCl4 + 23% HPBCD). […]
For orientation: Real-time PCR tracks product formation cycle by cycle.

In the next data set the target is hCXCR4 (Homo sapiens, UniProt P61073). In words: Ca2+ mobilization assay, U87.CD4.CXCR4 cells, CXCL12-induced. Format: cell-based. The arrangement: expressed in transfected cells; host or cells: U87.CD4.CXCR4. To be noted: antagonism of CXCL12 response. The method, then:
The calcium (Ca^2+) mobilization assay was described in detail before. Briefly, U87.CD4.CXCR4 or U87.CD4.CCR5 cells (2 × 10^4 cells per well in DMEM/10% FBS/0.01 M HEPES) were seeded in gelatin-coated (Sigma-Aldrich; 0.1% gelatin in DPBS) black-walled 96-well plates and incubated overnight at 37 °C and 5% CO2. The next day, cells were loaded with the fluorescent Ca^2+ indicator Fluo-2 acetoxymethyl (AM) ester (4 μM final concentration; Abcam) and incubated at RT in the dark for 45 min. Then, cells were washed with assay buffer (see above) and subsequently incubated with different concentrations of compound for ~ 10 min prior to addition of 6.25 nM CXCL12 (in case of CXCR4) or 6.4 nM CCL5 (in case of CCR5). Fluctuations in intracellular Ca^2+ levels were measured in real time by the FLIPR Tetra® device (Molecular Devices) in all 96 wells simultaneously. The response (Relative Light Units, RLUs) over baseline was calculated (ScreenWorks 4.0® software, Molecular Devices) by dividing the RLUs by a base line value measured just before addition of CXCL12 or CCL5, respectively. Inhibition of the Ca^2+ response was determined taking into account negative (i.e., untreated cells without stimulation) and positive (i.e., untreated cells stimulated with either CXCL12 or CCL5) control samples.
On the technique in general: A change in cytosolic calcium serves as a functional read-out for many receptors and channels.

On the set-up of data set [2]: method as in PMID 29627981. To be noted: cited from earlier work.

Like-named read-outs stand apart in the source and are kept apart here.

Chain of hACKR3 (P25106 whole entry): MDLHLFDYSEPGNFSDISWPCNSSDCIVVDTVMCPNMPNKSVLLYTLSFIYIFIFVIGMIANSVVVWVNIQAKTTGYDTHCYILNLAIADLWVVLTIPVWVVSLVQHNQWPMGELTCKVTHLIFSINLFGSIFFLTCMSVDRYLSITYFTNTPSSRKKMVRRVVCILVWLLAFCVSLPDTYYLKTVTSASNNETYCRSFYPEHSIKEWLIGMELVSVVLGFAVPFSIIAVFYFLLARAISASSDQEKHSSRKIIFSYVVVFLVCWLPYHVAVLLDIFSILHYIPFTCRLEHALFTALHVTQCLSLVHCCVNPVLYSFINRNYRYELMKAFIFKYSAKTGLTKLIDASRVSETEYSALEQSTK
Chain of hCXCR4 (P61073 whole entry): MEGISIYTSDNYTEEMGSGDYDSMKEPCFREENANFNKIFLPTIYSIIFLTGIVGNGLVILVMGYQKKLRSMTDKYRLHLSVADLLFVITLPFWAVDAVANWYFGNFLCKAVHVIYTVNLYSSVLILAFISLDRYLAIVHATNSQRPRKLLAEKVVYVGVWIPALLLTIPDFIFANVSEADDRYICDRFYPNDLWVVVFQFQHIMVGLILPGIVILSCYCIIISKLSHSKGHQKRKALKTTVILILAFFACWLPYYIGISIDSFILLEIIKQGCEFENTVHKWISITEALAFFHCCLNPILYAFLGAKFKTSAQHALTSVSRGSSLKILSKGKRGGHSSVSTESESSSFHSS

`CCc1ccn2ccnc2c1N1CCCN(C(CC(N)=O)C2CCN(C(=O)C3CC4CCC3O4)CC2)CC1` (stereo not shown) [compound 18a]: the EC50 at hACKR3 (conversion of 3.16 nM, read-out: EC50 β-arrestin2 recruitment expressed in ng/mL (converted)) was 3.25 nM; at hACKR3 (mean ± SD of two independent experiments, read-out: EC50 β-arrestin2 recruitment), 3.16 ± 0.12 nM; on hACKR3 (taking into account 34% free fraction, read-out: EC50 corrected for free fraction in mouse plasma (target value) (converted)), 9.95 nM. Further, in data set [1] (bleomycin model, day 21, qRT-PCR), the “Lgals3 expression in lung tissue” value is on record as “similarly lowered”. Also, in data set [1] (bleomycin-exposed lungs, day 21), the “number of these 8 genes similarly affected in lung” value is given as 1. Besides, on hCXCR4, the half-inhibitory concentration (IC50) was > 40000 nM. The “free fraction in mouse plasma” value in data set [2] was 34%.
